This note sets out measurements from EP4644391A1, “NOVEL PHENYLQUINOLONE COMPOUND HAVING ANTIBACTERIAL AND ANTICANCER FUNCTIONS, AND PREPARATION THEREOF” (Alphamol Science Ltd (Shanghai), priority 2022, dated 2024).

Holding throughout (assay type): cell-based
Test [1] has as its system E. feacium ATCC 700221. Briefly: In vitro antibacterial activity assay (MIC, broth dilution). The following applies: read-out: G+ bacteria MIC E. feacium ATCC 700221. From the text: (§1) The method used to indicate the activity of the compounds in this example is to record the minimum inhibitory concentration (MIC) of the compounds against bacteria. The specific experimental method is as follows: • 1. The bacterial liquid cultured from a single colony was taken, and diluted into autoclaved CAMHB broth in a ratio of 1:1000, and mixed well. • 2. The prepared drug solution was filtered through a sterile 0.22µm syringe filter and placed in a sterile EP tube for later use. • 3. A 96-well plate was taken, and 20µL of drug solution (400µg/mL) was added to each well in the first column of the 96-well plate. Then, 180µL of diluted bacterial liquid was added and mixed well (Perform 3 replicate rows for each drug). The same process was performed for the hydrochloride drug. • 4. 100 µL of diluted bacterial liquid was added to each well in the remaining 11 columns of the 96-well plate. Drugs are the same as above. • 5. Serial dilution: 100µL of liquid was taken from the first column to the second column, mixed well, then 100µL of liquid was taken from the second column to the third column, mixed well, and so on, sequentially diluting down to the last column (column 12). After mixing column 12 well, 100µL of liquid thereof was discarded. The drug concentration in each well was decreased by two-fold serially (the concentration in the first well is 40µg/mL). • 6. Blank CAMHB broth without added bacteria liquid was added to 3 blank wells in the 96-well plate, as negative control. • 7. The diluted bacterial liquid was added to 3 blank wells in the 96-well plate, as positive control. • 8. Incubated at 37°C for 16 hours. • 9. Results reading: the minimum inhibitory concentration is the minimum drug concentration at which no bacterial growth is visible to the naked eye and without turbidity.
In general terms: Dilution methods test growth across graded concentrations, often in twofold steps.

Test [2] has as its system S. aureus ATCC 43300. The description is as above. The following applies: Staphylococcus aureus.
Source text: as §1

Test [3] has as its system E. coli ATCC 25922. The description is as above. The following applies: Escherichia coli, ATCC25922.
Source text: as §1

Test [4] relates to Hela. Briefly: In vitro anticancer activity test (MTT cell proliferation assay). The following applies: Homo sapiens, average proliferation inhibition rate at the dosage of 40 µM. The procedure:
The anticancer activity of the compounds was tested using an in vitro cancer cell tests. The specific test method is as follows: • 1. Cell recovery and culture method: the cryovial was taken out from the liquid nitrogen container firstly, soaked directly in 37°C warm water, and shaked from time to time to let it thaw as soon as possible. Then, the cryovial was transferred to a clean bench, and the lid was open. The cell suspension was taken into a centrifuge tube using a rubber-tipped dropper and more than 10 times the culture medium was added, mixed well, and centrifuged at 50g for 5 minutes. Then, the supernatant was discarded, complete culture medium containing 10% fetal bovine serum was added to resuspend the cells, the cells was counted, the cell density was adjusted, and then inoculated into a culture bottle. The culture bottle was placed in a cell culture incubator at 5% CO2 and 37°C. The complete culture medium was replaced once the next day and the culture was continued. • 2. Cell passaging method: adherent cells in the logarithmic growth phase were placed in a clean bench, the original culture medium was discarded, and washed three times with 1×PBS. An appropriate amount of 0.25% trypsin digestion solution was added to moisten the cells, and then the trypsin solution was aspirated. The cells were placed in a cell culture incubator at 5% CO2 and 37°C for digestion for a suitable time, and observed under a microscope. When 90% of the cells become round, the cells were moved immediately to the clean bench and complete culture medium was added to terminate digestion. Then, the cells were dislodged by pipetting up and down with a rubber-tipped dropper to single cells. The cells were counted, and the cell density was adjusted. The cells were inoculated into a suitable culture bottle or dish, added enough complete culture medium, and placed in a cell culture incubator at 5% CO2 and 37°C for static culture. For suspension cells in the logarithmic phase, the original culture medium was directly centrifuged at 50g for 5 minutes, the supernatant was discarded, and the cells were washed once with PBS and centrifuged. After discarding the supernatant, the complete culture medium was added and the cells were dispersed using a rubber-tipped dropper. The cells are counted, and the cell density was adjusted. The cells were inoculated into appropriate culture bottles or culture dishes, and sufficient complete culture medium was added, and the cells were cultured in a cell culture incubator at 5% CO2 and 37°C. • 3. Cell proliferation assay: cells in good state in logarithmic phase were taken and appropriate amount of the cells was inoculated into 96-well plates according to the cell passage treatment method, with each well containing 180 µL complete medium. After the cells growth was recovered and the number of cells in each well is 5000±500, a drug was added for treatment. After drug treatment during the experimental time, MTT solution with a final concentration of 0.5 mg/mL was added to each well, and placed in a cell culture incubator at 5% CO2 and 37°C to allow a fully reaction of MTT with cells. After 4 hours, the solution in the 96-well plate was discarded, 100 µL of DMSO was added, and shaked to dissolve the formazan precipitated at the bottom of the plate, and the absorbance value of samples was detected at a wavelength of 570 nm using a microplate reader. Calculation method of cell viability rate: Viability rate = A sample group÷A control group × 100% [formula] • 4. Cell photography step: cells in good state in logarithmic phase were taken and an appropriate amount of cells was inoculated into 96-well plates according to the cell passage treatment method, with each well containing 180 µL complete medium. After the cells growth was recovered and the number of cells in each well is 5000 ± 500, a drug was added for treatment. […]
In general terms: Formazan colour is commonly taken as a measure of viable cells.

For test [5], the system named is A. baumannii ATCC 17978. Briefly: In vitro antibacterial activity assay (MIC, broth dilution). The following applies: Acinetobacter baumannii, ATCC17978; Table 2; 37°C, 16 hours; read-out: G- bacteria MIC A. baumannii ATCC 17978.
Source text: as §1

In test [6] the test system is P.aeruginosa ATCC 27853. The description is as above. The following applies: Pseudomonas aeruginosa, ATCC27853; Table 2; 37°C, 16 hours; read-out: G- bacteria MIC P.aeruginosa ATCC 27853.
Source text: as §1

Setting [7] is: ATCC43300, Table 1, 37°C, 16 hours, read-out: G+ bacteria MIC S. aureus ATCC 43300.
[8] abbreviates: Table 3, read-out: E. coli ATCC 25922 MIC.
Setting [9] is: ATCC43300, Table 3, read-out: S. aureus ATCC 43300 MIC.
[10] abbreviates: Table 2, 37°C, 16 hours, read-out: G- bacteria MIC E. coli ATCC 25922.

Values after ≈ are worked out from the molar mass of the structure shown. Read-outs that look alike come from different tables or passages of the source.

Broadly, the MIC is the lowest concentration that inhibits growth of the organism. On to `CCCNS(=O)(=O)c1ccc(-c2c(F)cc3c(=O)c(C(=O)O)cn(C4CC4)c3c2Cl)cn1` [Example 15, 8-chloro-1-cyclopropyl-6-fluoro-4-oxo-7-(6-(N-propylsulfamoyl)pyridin-3-yl)-1,4-dihydroquinolin-3-carboxylic acid], for which the MIC is > 8 µg/mL in test [1] (Table 1, 37°C, 16 hours) and ≤ 0.1 µg/mL in test [2] (setting [7]).
As a reminder, the inhibition is the drop in the measured response relative to a control, in per cent. Read a high inhibition as a response far below the control. Regarding `COc1c(-c2ccc(N)c([N+](=O)[O-])c2)c(F)cc2c(=O)c(C(=O)NO)cn(C3CC3)c12` [Example 138], the figures for the minimal inhibitory concentration (MIC) in test [3] (setting [8]) and in test [2] (setting [9]) were ≥ 1 µg/mL and ≤ 1 µg/mL, respectively. In addition, the inhibition at 40 µM in test [4] was ≥ 50%.
On to `Cc1c(-c2ccc(C(=O)NCC(C)(C)C)c(N)c2)c(F)cc2c(=O)c(C(=O)O)cn(C3CC3)c12` [Example 49], for which the MIC in test [1] (Table 1, 37°C, 16 hours) is 1 to 8 µg/mL (≈ 2.15 to 17.2 µM); in test [2] (setting [7]), ≤ 0.1 µg/mL.
In the case of `Nc1cc(-c2cc3c(cc2F)c(=O)c(C(=O)O)cn3C2CC2)ccn1` [Example 50], the MIC in test [5] is ≤ 0.1 µg/mL; in test [3] (setting [10]), ≤ 0.1 µg/mL; in test [6], 0.1 to 1 µg/mL (≈ 0.295 to 2.95 µM).
Consider `N#Cc1cc(-c2cc3c(cc2F)c(=O)c(C(=O)O)cn3C2CC2)ccc1S(=O)(=O)NC1CCOCC1` [Example 5, 7-(3-cyano-4-(N-(tetrahydro-2H-pyran-4-yl)sulfamoyl)phenyl)-1-cyclopropyl-6-fluoro-4-oxo-1,4-dihydroquinolin-3-carboxylic acid], for which the MIC was ≤ 0.1 µg/mL in test [5]; ≤ 0.1 µg/mL in test [3] (setting [10]); 1 to 8 µg/mL (≈ 1.95 to 15.6 µM) in test [1] (Table 1, 37°C, 16 hours); 0.1 to 1 µg/mL (≈ 0.195 to 1.95 µM) in test [6]; ≤ 0.1 µg/mL in test [2] (setting [7]).
As to `NS(=O)(=O)c1ccc(-c2c(F)cc3c(=O)c(C(=O)O)cn(C4CC4)c3c2Cl)cc1[N+](=O)[O-]` [Example 4, 8-chloro-1-cyclopropyl-6-fluoro-7-(3-nitro-4-sulfamoyphenyl)-4-oxo-1,4-dihydroquinolin-3-carboxylic acid], the MIC in test [5] is 0.1 to 1 µg/mL (≈ 0.208 to 2.08 µM); in test [3] (setting [10]), ≤ 0.1 µg/mL; in test [1] (Table 1, 37°C, 16 hours), 1 to 8 µg/mL (≈ 2.08 to 16.6 µM); in test [6] it was 0.1 to 1 µg/mL (≈ 0.208 to 2.08 µM); in test [2] (setting [7]), ≤ 0.1 µg/mL.
Turning to `CCCCCCCNS(=O)(=O)c1ccc(-c2cc3c(cc2F)c(=O)c(C(=O)O)cn3C2CC2)cc1C(F)(F)F` [Example 132], the figures for the MIC in test [3] (setting [8]) and in test [2] (setting [9]) were ≥ 1 µg/mL and ≤ 1 µg/mL, respectively. Further, the inhibition at 40 µM in test [4] is ≥ 20%.
For `CCCCCCCNS(=O)(=O)c1ccc(-c2cc3c(cc2F)c(=O)c(C(=O)O)cn3-c2ccc(F)cn2)cc1` [Example 19, 6-fluoro-1-(5-fluoropyridin-2-yl)-7-(4-(N-heptylsulfamoyl)phenyl)-4-oxo-1,4-dihydroquinolin-3-carboxylic acid], in that order: ≥ 1 µg/mL, ≤ 1 µg/mL and ≥ 50%.
Turning to `O=C(O)c1cn(C2CC2)c2cc(-c3ccc(S(=O)(=O)NCCCl)cc3)c(F)cc2c1=O` [Example 10, 7-(4-(N-(2-chloroethyl)sulfamoyl)phenyl)-1-cyclopropyl-6-fluoro-4-oxo-1,4-dihydroquinolin-3-carboxylic acid], the minimal inhibitory concentration (MIC) in test [1] (16 h) was > 8 µg/mL; in test [2] (ATCC43300, 16 h, read-out: G+ bacteria MIC S. aureus ATCC 43300), ≤ 0.1 µg/mL.
For `O=C(O)c1cn(C2CC2)c2cc(-c3ccc(NC(=O)C(F)(F)F)c([N+](=O)[O-])c3)c(F)cc2c1=O` [Example 35], the minimum inhibitory concentration (MIC) in test [5] was ≤ 0.1 µg/mL; in test [3] (setting [10]) it was ≤ 0.1 µg/mL; in test [6], 0.1 to 1 µg/mL (≈ 0.209 to 2.09 µM).
As to `CCCCCCCNS(=O)(=O)c1ccc(-c2cc3c(cc2F)c(=O)c(C(=O)O)cn3-c2ccc(F)cc2)cc1` [Example 12, 6-fluoro-1-(4-fluorophenyl)-7-(4-(N-heptylsulfamoyl)phenyl)-4-oxo-1,4-dihydroquinolin-3-carboxylic acid], the MIC in test [3] (setting [8]) was ≥ 1 µg/mL; in test [2] (setting [9]), ≤ 1 µg/mL. The inhibition at 40 µM in test [4] is ≥ 50%.
With `CC(C)(C)OC(=O)Nc1ccc(-c2cc3c(cc2F)c(=O)c(C(=O)O)cn3C2CC2)cc1[N+](=O)[O-]` [Example 40], the MIC in test [3] (setting [8]) is ≥ 1 µg/mL; in test [2] (setting [9]), ≤ 1 µg/mL. Also, the inhibition at 40 µM in test [4] is ≥ 50%.
`Nc1ccc(-c2c(F)cc3c(=O)c(C(=O)NO)cn(C4CC4)c3c2Cl)cc1[N+](=O)[O-]` [Example 64]: the minimal inhibitory concentration (MIC) in test [3] (setting [8]) is ≥ 1 µg/mL; in test [2] (setting [9]), ≤ 1 µg/mL. Besides, the inhibition at 40 µM in test [4] was ≥ 20%.
Take `Nc1cc(-c2c(F)cc3c(=O)c(C(=O)O)cn(C4CC4)c3c2F)ccc1C(=O)NCC(F)(F)F` [Example 43]: the MIC is 0.1 to 1 µg/mL (≈ 0.208 to 2.08 µM) in test [5]; ≤ 0.1 µg/mL in test [3] (setting [10]); ≤ 1 µg/mL in test [3] (setting [8]); 0.1 to 1 µg/mL (≈ 0.208 to 2.08 µM) in test [6]; ≤ 1 µg/mL in test [2] (setting [9]). Moreover, the inhibition at 40 µM in test [4] was ≥ 20%.
`CCCCCCCNS(=O)(=O)c1ccc(-c2cc3c(cc2F)c(=O)c(C(=O)O)cn3C2CC2)cc1` [Example 101]: the minimal inhibitory concentration (MIC) in test [3] (setting [8]) was ≥ 1 µg/mL; in test [2] (setting [9]) it was ≤ 1 µg/mL. Also, the inhibition at 40 µM in test [4] is ≥ 50%.
For `COc1c(-c2ccc(NC(=O)C(F)(F)F)c([N+](=O)[O-])c2)c(F)cc2c(=O)c(C(=O)O)cn(C3CC3)c12` [Example 30, 1-cyclopropyl-6-fluoro-8-methoxy-7-(3-nitro-4-(2,2,2-triifluoroacetamido)phenyl)-4-oxo-1,4-dihydroquinolin-3-carboxylic acid], the MIC is 0.1 to 1 µg/mL (≈ 0.196 to 1.96 µM) in test [5], ≤ 0.1 µg/mL in test [3] (setting [10]) and 0.1 to 1 µg/mL (≈ 0.196 to 1.96 µM) in test [6].
`O=C(O)c1cn(C2CC2)c2c([N+](=O)[O-])c(-c3ccc(NC(=O)C(F)(F)F)c([N+](=O)[O-])c3)c(F)cc2c1=O` [Example 32]: the MIC in test [1] (Table 1, 37°C, 16 hours) was 1 to 8 µg/mL (≈ 1.91 to 15.3 µM); in test [2] (setting [7]) it was ≤ 0.1 µg/mL.
In the case of `COc1cc(-c2cc3c(cc2F)c(=O)c(C(=O)O)cn3C2CC2)ccc1NC(=O)C(C)(C)C` [Example 65], the figures for the MIC in test [3] (setting [8]) and in test [2] (setting [9]) were ≥ 1 µg/mL and ≤ 1 µg/mL, respectively. Moreover, in test [4], the inhibition at 40 µM was ≥ 50%.
